# Patent US20160022720A1, “COMPOSITIONS AND METHODS FOR TREATING DISEASE STATES ASSOCIATED WITH ACTIVATED T CELLS AND/OR B CELLS” (priority 2013, published 2016)
# “Also recorded” adds a separate entry of the source.
# Key:
# [1] = tested on: activated T cells; set-up: species or system mice; conditions: mouse
# [2] = tested on: activated T cells; format: cell-based, mice; conditions: culture of activated T cells with agent
# [3] = tested on: activated T cells (P14); format: cell-based, mice; conditions: for killing of activated T cells in vitro: agent itself, overnight culture
# [4] = tested on: LCMV-infected prf−/− mice; conditions: mouse, in vivo
# [5] = tested on: HLH; conditions: HLH patients, etoposide-based therapy, increased from approximately 0%; cited from earlier work
# [6] = tested on: experimental autoimmune encephalitis; conditions: in vivo
# [7] = tested on: reactivated memory T cells; assay: Depletion of memory T cells reactivated in vivo with liposomal GP33 peptide in WT mice; conditions: etoposide 100 mg/kg/dose x2, or etoposide 25 mg/kg/dose + nutlin 50 mg/kg x4
Compound,potentiation of etoposide killing of activated T cells in vitro [3],killing of activated T cells in vitro [3],further results
NC(=O)Nc1cc(-c2cccc(F)c2)sc1C(=O)N[C@H]1CCCNC1 [AZD7762],potentiate etoposide killing of activated T cells in vitro,kill activated T cells in vitro; also recorded: selectively kill activated T cells,potentiation of low dose etoposide for depletion of activated T cells in vivo [1]: strongly synergizes with etoposide in vivo; DNA damage (gammaH2AX) in activated T cells in vitro [2]: leads to accumulation of spontaneous DNA damage; also recorded: led to increasing DNA damage
NC(=O)C1CCCc2c1[nH]c1ccc(Cl)cc21 (stereo not drawn) [Ex527],enhance etoposide killing of activated T cells in vitro,–,–
C=CCn1c(=O)c2cnc(Nc3ccc(N4CCN(C)CC4)cc3)nc2n1-c1cccc(C(C)(C)O)n1 [MK-1775],potentiate etoposide killing of activated T cells in vitro,selectively kill activated T cells,–
"O=C1C(Cl)=C(N2CCOCC2)C(=O)N1c1ccc(Cl)c(Cl)c1 [Ri-1, 3-chloro-1-(3,4-dichlorophenyl)-4-morpholino-1H-pyrrole-2,5-dione]",substantial synergy with etoposide in vitro,kill activated T cells in vitro,–
CCOc1cc(/C=C2/C(=O)N(c3ccccc3)N=C2C)cc(Cl)c1OCC(=O)OC [Sj-172550],enhance etoposide killing of activated T cells in vitro,–,–
COc1cc([C@@H]2c3cc4c(cc3[C@@H](O[C@@H]3O[C@@H]5CO[C@@H](C)O[C@H]5[C@H](O)[C@H]3O)[C@H]3COC(=O)[C@H]23)OCO4)cc(OC)c1O [etoposide],–,–,inflammatory cytokines/disease-specific inflammatory markers [4]: decreased inflammatory cytokines/disease-specific inflammatory markers; pancytopenia [4]: alleviated pancytopenia; survival / rescue from HLH-like disease [4]: allowed survival; also recorded: rescues LCMV-infected prf−/− mice from HLH-like disease; long-term survival [5]: 55%; therapeutic effect in experimental autoimmune encephalitis [6]: highly therapeutic; depletion of reactivated memory T cells in vivo [7]: ablated
COc1ccc(C2=NC(c3ccc(Cl)cc3)C(c3ccc(Cl)cc3)N2C(=O)N2CCNC(=O)C2)c(OC(C)C)c1 (stereo not drawn) [nutlin],"dramatically shifts the etoposide:death, dose:response curve",–,potentiation of low dose etoposide for depletion of activated T cells in vivo [1]: potentiates etoposide immunomodulation in vivo
